From article PMC11219936, “Development of radioiodine-labeled mequitazine for evaluation of hepatic CYP2D activity” (Frontiers in Pharmacology, 2024)
Each block holds one compound with its values, some of them ahead of it.

Assays:
[1] = tested on: ^125I-BMQ-metabolizing CYP isoenzymes (pooled MLMs); test: Inhibition of ^125I-BMQ metabolism by specific CYP inhibitors and mequitazine in pooled MLMs; settings: for percentage of metabolites produced from ^125I-BMQ: 37°C, 15 min; for inhibition at 15 min, 10 µM: mouse, pooled mouse liver microsomes, pH 7.4, probe ^125I-BMQ
Description: These specific inhibitors were used to identify the CYPs involved in the biotransformation of ^125I-BMQ. The inhibitors and mequitazine (self-inhibitor) were dissolved at a concentration of 10 μM (0.8% [v/v] final concentration DMSO).
Samples were incubated at 37°C for 15 min with gentle shaking, and the reaction was stopped by addition of 100 µL of ethanol and centrifugation at 18,000 g for 5 min. The final supernatant was analyzed by TLC using methanol/acetic acid at a 100:1 ratio. The percentages of ^125I-BMQ metabolites in each sample were then calculated (n = 3).

[2] = Biological distribution of ^125I-BMQ in normal mice; assay type: in vivo, mouse; settings: tail vein injection
Description: ^125I-BMQ was prepared to a specific radioactivity of 185 kBq/mL by adding saline. A total of 20 fasting 6-week-old male ddY mice were injected with ^125I-BMQ into the tail vein (18.5 kBq/100 µL/mouse), and after 2, 10, 30, 60, and 120 min, four mice each were euthanized under isoflurane, and blood, brain, thyroid, lung, heart, liver, gallbladder, stomach, pancreas, spleen, intestine, kidney, and urine tissue were collected. The tissue was weighted and the radioactivity was measured using a γ-ray counter to calculate the injected dose percent (%ID) or injected dose percent per gram of tissue (%ID/g).

[3] = tested on: CYP (pooled mouse liver microsomes, MLMs); test: NADPH-mediated metabolism of ^125I-BMQ in pooled mouse liver microsomes, TLC analysis; assay type: in vitro ADME; settings: 37°C, increase with reaction time
Description: Animal studies were approved by the Animal Care Committee at Kanazawa University (AP-173851) and conducted in accordance with international standards for animal welfare and institutional guidelines. For preparation of pooled mouse liver microsomes (MLMs), three 6-week-old male ddY mice (Japan SLC, Tokyo, Japan) were euthanized under anesthesia using isoflurane. The liver of each mouse was removed and weighed. After adding 3 mL of Krebs-Ringer’s phosphate buffer (pH 7.4) per gram of liver, the livers were pooled and homogenized using an ultrasonic homogenizer (SONIFIER250, Branson, MO, United States). The homogenate was centrifuged for 20 min at 9,000 g, and the supernatant was centrifuged for 60 min at 100,500 g. […] The resulting precipitate was obtained as microsomes, and the protein content was determined according to the bicinchoninic acid method ([Smith et al., 1985]). […]
To analyze CYP-mediated metabolism of ^125I-BMQ, nicotinamide adenine dinucleotide phosphate (NADPH) was used as an energy source for CYP. […] The samples were then centrifuged at 18,000 g for 5 min, and the supernatant of each sample was analyzed by thin layer chromatography (TLC). […] After development and complete drying, the TLC plates were cut into 21 fractions, and the radioactivity associated with each fraction was measured using a γ-ray counter (AccuFLEX γ 7000, Aloka, Tokyo, Japan). […]

[4] = Metabolism of ^125I-BMQ in vivo: TLC analysis of radioactive products in bile; parameters: species or system mouse
Description: ^125I-BMQ was prepared to a specific radioactivity of 10 MBq/mL by adding saline and injected via tail vein into three mice (2.0 MBq/200 µL/mouse). […] Radioactive products in the bile were analyzed by TLC using chloroform/acetic acid/H2O at a ratio of 60:40:1. Bile was spotted directly onto the TLC plate.

[5] = Preliminary study: effect of intraperitoneal paroxetine on hepatobiliary excretion of ^99mTc-PMT, SPECT dynamic imaging; settings: CYP2D-inhibited mice, probe ^99mTc-PMT
Description: SPECT imaging of ^123I-BMQ was performed to visualize the accumulation of radioactive metabolite for the purpose of assessing CYP2D activity. […] In a preliminary study, the effect of intraperitoneal administration of paroxetine on hepatobiliary excretion was investigated.

[6] = NADPH [+], pooled MLMs, inhibitor 10 μM
[7] = mouse bile after iv injection, gallbladder removed, TLC

- percentage of metabolites produced from ^125I-BMQ [1, 6]: 12.5%
- inhibition at 15 min, 10 µM [1]: 42%
Structure (SMILES): Fc1ccc([C@@H]2CCNC[C@H]2COc2ccc3c(c2)OCO3)cc1 [paroxetine]
- effect on biliary excretory function [5]: did not affect the biliary excretory function itself

- percentage of metabolites produced from ^125I-BMQ [1, 6]: 4.47%
- inhibition at 15 min, 10 µM [1]: 80%
Structure (SMILES): C=C[C@H]1C[N@@]2CC[C@H]1C[C@@H]2[C@@H](O)c1ccnc2ccc(OC)cc12 [quinidine]

Second part, the compound before the results:

Structure (SMILES): c1ccc2c(c1)Sc1ccccc1N2CC1CN2CCC1CC2 (racemic) [mequitazine, 10-[(3RS)-1-azabicyclo [2.2.2]oct-3-ylmethyl]-10H-phenothiazine]
- percentage of metabolites produced from ^125I-BMQ [1, 6]: 1.34%
- inhibition at 15 min, 10 µM [1]: 94%

Structure (SMILES): [125I]c1ccc(C[N+]23CCC(CC2)C(CN2c4ccccc4Sc4ccccc42)C3)cc1 (stereo not drawn) [^125I-BMQ, ^125I-4-iodobenzylmequitazine]
- Biological distribution, Blood ([2]; 2 min): 1.71 ± 0.40 %ID/g
- Biological distribution, Brain ([2]; 2 min): 0.12 ± 0.02 %ID/g
- Biological distribution, Gall bladder ([2]; 2 min): 4.16 ± 4.04 %ID/g
- Biological distribution, Heart ([2]; 2 min): 0.78 ± 0.14 %ID/g
- Biological distribution, Intestines ([2]; 2 min): 1.52 ± 0.17 %ID/organ
- Biological distribution, Kidney ([2]; 2 min): 8.04 ± 0.39 %ID/g
- Biological distribution, Liver ([2]; 2 min): 10.58 ± 0.30 %ID/g
- Biological distribution, Lung ([2]; 2 min): 0.77 ± 0.12 %ID/g
- Biological distribution, Pancreas ([2]; 2 min): 0.51 ± 0.05 %ID/g
- Biological distribution, Spleen ([2]; 2 min): 0.46 ± 0.11 %ID/g
- Biological distribution, Stomach ([2]; 2 min): 0.14 ± 0.01 %ID/organ
- Biological distribution, Thyroid ([2]; 2 min): 1.19 ± 0.23 %ID/g
- Biological distribution, Urine ([2]; 2 min): 0.10 ± 0.10 %ID/organ
- Biological distribution, Blood ([2]; 10 min): 0.32 ± 0.07 %ID/g
- Biological distribution, Brain ([2]; 10 min): 0.08 ± 0.02 %ID/g
- Biological distribution, Gall bladder ([2]; 10 min): 13.28 ± 14.03 %ID/g
- Biological distribution, Heart ([2]; 10 min): 0.47 ± 0.11 %ID/g
- Biological distribution, Intestines ([2]; 10 min): 3.90 ± 1.55 %ID/organ
- Biological distribution, Kidney ([2]; 10 min): 7.84 ± 0.50 %ID/g
- Biological distribution, Liver ([2]; 10 min): 10.55 ± 0.48 %ID/g
- Biological distribution, Lung ([2]; 10 min): 0.46 ± 0.28 %ID/g
- Biological distribution, Pancreas ([2]; 10 min): 0.41 ± 0.03 %ID/g
- Biological distribution, Spleen ([2]; 10 min): 0.26 ± 0.01 %ID/g
- Biological distribution, Stomach ([2]; 10 min): 1.33 ± 1.08 %ID/organ
- Biological distribution, Thyroid ([2]; 10 min): 0.57 ± 0.15 %ID/g
- Biological distribution, Urine ([2]; 10 min): 0.06 ± 0.07 %ID/organ
- Biological distribution, Blood ([2]; 30 min): 0.30 ± 0.16 %ID/g
- Biological distribution, Brain ([2]; 30 min): 0.14 ± 0.10 %ID/g
- Biological distribution, Gall bladder ([2]; 30 min): 24.43 ± 6.95 %ID/g
- Biological distribution, Heart ([2]; 30 min): 0.52 ± 0.23 %ID/g
- Biological distribution, Intestines ([2]; 30 min): 7.06 ± 1.89 %ID/organ
- Biological distribution, Kidney ([2]; 30 min): 8.70 ± 1.50 %ID/g
- Biological distribution, Liver ([2]; 30 min): 8.45 ± 0.99 %ID/g
- Biological distribution, Lung ([2]; 30 min): 0.40 ± 0.20 %ID/g
- Biological distribution, Pancreas ([2]; 30 min): 0.63 ± 0.25 %ID/g
- Biological distribution, Spleen ([2]; 30 min): 0.24 ± 0.08 %ID/g
- Biological distribution, Stomach ([2]; 30 min): 0.42 ± 0.36 %ID/organ
- Biological distribution, Thyroid ([2]; 30 min): 1.16 ± 0.60 %ID/g
- Biological distribution, Urine ([2]; 30 min): 0.30 ± 0.26 %ID/organ
- Biological distribution, Blood ([2]; 60 min): 0.11 ± 0.01 %ID/g
- Biological distribution, Brain ([2]; 60 min): 0.05 ± 0.01 %ID/g
- Biological distribution, Gall bladder ([2]; 60 min): 23.28 ± 9.55 %ID/g
- Biological distribution, Heart ([2]; 60 min): 1.00 ± 0.13 %ID/g
- Biological distribution, Intestines ([2]; 60 min): 14.26 ± 1.26 %ID/organ
- Biological distribution, Kidney ([2]; 60 min): 18.07 ± 2.42 %ID/g
- Biological distribution, Liver ([2]; 60 min): 6.61 ± 0.90 %ID/g
- Biological distribution, Lung ([2]; 60 min): 0.55 ± 0.13 %ID/g
- Biological distribution, Pancreas ([2]; 60 min): 0.84 ± 0.29 %ID/g
- Biological distribution, Spleen ([2]; 60 min): 0.86 ± 0.12 %ID/g
- Biological distribution, Stomach ([2]; 60 min): 0.63 ± 0.41 %ID/organ
- Biological distribution, Thyroid ([2]; 60 min): 1.03 ± 0.21 %ID/g
- Biological distribution, Urine ([2]; 60 min): 0.47 ± 0.55 %ID/organ
- Biological distribution, Blood ([2]; 120 min): 0.09 ± 0.01 %ID/g
- Biological distribution, Brain ([2]; 120 min): 0.05 ± 0.01 %ID/g
- Biological distribution, Gall bladder ([2]; 120 min): 28.93 ± 14.65 %ID/g
- Biological distribution, Heart ([2]; 120 min): 0.92 ± 0.11 %ID/g
- Biological distribution, Intestines ([2]; 120 min): 16.36 ± 1.01 %ID/organ
- Biological distribution, Kidney ([2]; 120 min): 16.10 ± 2.91 %ID/g
- Biological distribution, Liver ([2]; 120 min): 6.02 ± 1.23 %ID/g
- Biological distribution, Lung ([2]; 120 min): 0.36 ± 0.06 %ID/g
- Biological distribution, Pancreas ([2]; 120 min): 0.73 ± 0.26 %ID/g
- Biological distribution, Spleen ([2]; 120 min): 0.83 ± 0.32 %ID/g
- Biological distribution, Stomach ([2]; 120 min): 0.44 ± 0.07 %ID/organ
- Biological distribution, Thyroid ([2]; 120 min): 1.14 ± 0.08 %ID/g
- Biological distribution, Urine ([2]; 120 min): 0.11 ± 0.01 %ID/organ
- percentage of radioactive metabolite [3]: 3%–25%
- percentage of metabolites ([1]; NADPH [−], pooled MLMs, no inhibitor): 2.64%
- radioactivity in the bile that was radioactive metabolite ([4]; gallbladder removed 60 min after the mice were injected): more than 90%
- ^125I-BMQ (parent) in bile [4, 7]: no ^125I-BMQ was detected
- percentage of metabolites of ^125I-BMQ in bile [4, 7]: > 90%

Structure (SMILES): CC(=O)N1CCN(c2ccc(OCC3COC(Cn4ccnc4)(c4ccc(Cl)cc4Cl)O3)cc2)CC1 (stereo not drawn) [ketoconazole]
- percentage of ^125I-BMQ compared with NADPH [+] [1, 6]: slightly lower, but not significantly
